Literature values in US10980792B2, “Formulations of Cabozantinib” (Zhuhai Beihai Biotech Co., Ltd., priority 2016, dated 2021).

protein bound in human plasma (human plasma): ≥ 99.7%
solubility in water: practically insoluble
SMILES: COc1cc2nccc(Oc3ccc(NC(=O)C4(C(=O)Nc5ccc(F)cc5)CC4)cc3)c2cc1OC [Cabozantinib, cabozantinib]
